Laboratory results published in patent US9795678B2, “Fast-acting insulin composition comprising a substituted anionic compound and a polyanionic compound” (ADOCIA, priority 2014, dated 2017).

What was measured:
[1] = molecular target: T1, hexameric structure of human insulin (Homo sapiens, UniProt P01308); assay: Circular dichroism, CD signal of human insulin at 276 nm; format: physicochemical; conditions: rhINS 100 IU/ml; Compound 7.3 mg/mL
T1 construct: the insulin is a recombinant human insulin as described in the European pharmacopea and the American pharmacopea
Experimental: The CD signal at 276 nm is characteristic of the hexameric form of insulin (hexamer signal at about −300°, dimer signal between −200° and −250° and monomer signal below −200°). Loss of the CD signal at 276 nm is thus characteristic of a destabilization of the hexamer into dimers or monomers.

[2] = molecular target: hexameric form R6 of lispro insulin (Homo sapiens, UniProt P01308, K53P/P52K); assay: Circular dichroism, CD signal of lispro insulin at 240 nm; conditions: lispro insulin 100 IU/mL; substituted anionic compound 7.3 mg/mL; citrate 9.3 mM; EDTA 300 μM
[3] = cited from earlier work

T1 sequence (P01308 25-54 limits assumed): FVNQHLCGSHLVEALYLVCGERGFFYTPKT
T1 sequence (P01308 90-110 limits assumed): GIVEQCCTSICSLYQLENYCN
hexameric form R6 of lispro insulin, sequence (P01308 25-54 P52K/K53P limits assumed): as the sequence (P01308 25-54 limits assumed) above, with P28K, K29P counted along it

Compound	Impact on the hexameric structure of human insulin (CD signal at 276 nm) [1]	Impact on the R6 form of lispro insulin (CD signal at 240 nm) [2]	delay of action when compared with a rapid insulin analog (dissociation of hexamers into dimers and monomers) ([3]; Brange J., et al., 1999)	time after which a hypoglycemiant effect occurs ([3]; injected subcutaneously, diabetic patients) [min]
O=C(O)CN(CCN(CC(=O)O)CC(=O)O)CC(=O)O [EDTA]	very pronounced impact	completely destructures		
O=C(O)CCC(=O)N[C@@H](Cc1ccccc1)C(=O)O [Substituted anionic compound A1, N-(3-carboxy-1-oxopropyl-)-L-phenylalanine]	no impact			
O=C(O)CC(O)(CC(=O)O)C(=O)O [citrate]	no impact	no impact		
human insulin: human insulin produced by genetic engineering			up to 20 minutes	60
